According to paper PMC5571359, “Screening the Medicines for Malaria Venture Pathogen Box across Multiple Pathogens Reclassifies Starting Points for Open-Source Drug Discovery” (Antimicrobial Agents and Chemotherapy, 2017):
Like-named read-outs stand apart in the source and are kept apart here.

What was measured:
P. falciparum ABS = settings: cited from earlier work; for EC50: ChEMBL Data; for IC50: read-out: Pf 3D7 Pbox IC50
liver stage = settings: cited from earlier work
HepG2 = settings: cited from earlier work
HEK293 cells = test: HEK293 resazurin cell cytotoxicity assay; settings: Homo sapiens; for IC50: HEK293, read-out: HEK % Inhibition 20uM/IC50 Discovery Biology (IA)
[1] = tested on: T. b. brucei 427 bloodstream trypanosomes; test: T. b. brucei resazurin viability assay; assay type: cell-based, Trypanosoma brucei brucei; settings: Trypanosoma brucei; PBox compounds; read-out: IC50 T. brucei brucei (Discovery Biology)
[2] = NITD, read-out: NITD (ref 94) EC50
[3] = Pf 3D7, ref Pathogen Box supporting information
[4] = liver stage, ref Pathogen Box supporting information, read-out: LIVER STAGE Pbox IC50
[5] = read-out: HepG2 PBox CC50 µM, HepG2 CC50, ref Pathogen Box supporting information
[6] = P. falciparum, read-out: TCMDC (ref 93) EX50
[7] = P. falciparum 3D7, ref PBox supporting information
[8] = ref Pbox supporting information
[9] = read-out: HepG2 PBox CC50 µM, ref PBox supporting information
[10] = TCMDC, read-out: TCMDC (ref 93) EX50
[11] = P. falciparum, read-out: NITD (ref 94) EC50

## O=C1Nc2ccc(Br)cc2C12NCCc1c2[nH]c2ccccc12 (stereo not drawn) [MMV006239]
P. falciparum ABS; [2]
  EC50: 200 nM
P. falciparum ABS; [3]
  IC50: 510 nM
Liver stage; [4]
  IC50: > 10000 nM
HepG2; [5]
  CC50: > 10 µM

## NCC(=O)N1CCn2c(nc(-c3ccccc3)c2Nc2ccc3c(c2)OCO3)C1 [MMV011691]
P. falciparum ABS; [2]
  EC50: 160 nM
P. falciparum ABS; [3]
  IC50: 640 nM
Liver stage; [4]
  IC50: 3780 nM
HepG2
  CC50: > 10 µM

## CNC(=O)C1Cc2c([nH]c3cc(Cl)ccc23)C2(CCN(CCc3ccccc3)CC2)N1 (stereo not drawn) [MMV031011]
P. falciparum ABS; [6]
  EC50: 930 nM
P. falciparum ABS; [7]
  IC50: 860 nM
Liver stage; [8]
  IC50: 4510 nM
HepG2; [9]
  CC50: > 10 µM
HEK293 cells
  IC50: > 20000 nM

## Cc1cc(C(=O)Nc2cnn(Cc3ccc(Cl)cc3Cl)c2)no1 [MMV009054]
P. falciparum ABS; [2]
  EC50: 620 nM
P. falciparum ABS; [3]
  IC50: 1880 nM
Liver stage; [4]
  IC50: 1390 nM
HepG2; [5]
  CC50: > 10 µM

## CC(C)C(NC(=O)Cc1cccc2ccccc12)C(=O)Nc1cccc(C#N)c1 (stereo not drawn) [MMV020591]
P. falciparum ABS; [10]
  EC50: 660 nM
P. falciparum ABS; [3]
  IC50: 960 nM
Liver stage; [4]
  IC50: 9150 nM
HepG2; [5]
  CC50: > 10 µM

## O=C1N(Cc2cc3ccccc3s2)CC2CN(Cc3ccccc3)CCN12 (stereo not drawn) [MMV084603]
P. falciparum ABS; [11]
  EC50: 440 nM
P. falciparum ABS; [7]
  IC50: 1160 nM
Liver stage; [8]
  IC50: 200 nM
HepG2; [9]
  CC50: > 10 µM

## Cc1cnc(CCNC(=O)c2cc(-c3ccc(Cl)cc3)cs2)[nH]1 [MMV676350]
P. falciparum ABS; [6]
  EC50: 240 nM
P. falciparum ABS; [7]
  IC50: 810 nM
Liver stage; [8]
  IC50: 8580 nM
HepG2; [9]
  CC50: > 10 µM

## Cc1cccc(C(=O)Nc2ccnc(N(C)C3CCN(CC(C)C)CC3)c2)c1 [MMV024829]
P. falciparum ABS; [10]
  EC50: 870 nM
P. falciparum ABS; [3]
  IC50: 2100 nM
Liver stage; [4]
  IC50: > 10000 nM
HepG2
  CC50: > 10 µM

## Nc1nccc2ccc(Oc3ccncc3)cc12 [MMV026313]
P. falciparum ABS; [6]
  EC50: 480 nM
P. falciparum ABS; [7]
  IC50: 230 nM
Liver stage; [8]
  IC50: > 10000 nM
HepG2; [9]
  CC50: > 10 µM

## c1csc(-c2cnc3sc(NCC4CCOCC4)nn23)c1 [MMV010764]
P. falciparum ABS; [3]
  IC50: 1370 nM
Liver stage; [4]
  IC50: > 10000 nM
HepG2; [5]
  CC50: > 10 µM

## CN1CCN(c2nccc3nc(-c4ccc(F)c(F)c4)[nH]c23)CC1 [MMV676260]
P. falciparum ABS; [7]
  IC50: 1130 nM
Liver stage; [8]
  IC50: > 10000 nM
HepG2; [9]
  CC50: > 10 µM

## COc1cncc(-c2cncc(N3CCN(c4ccncc4)CC3)n2)c1 [MMV085071]
P. falciparum ABS; [11]
  EC50: 80 nM
P. falciparum ABS; [7]
  IC50: 100 nM
Liver stage; [8]
  IC50: > 7500 nM
HepG2; [9]
  CC50: > 10 µM

## O=C(NC1CCN(c2ccnc3ccccc23)C1)c1cccc(C(F)(F)F)c1 (stereo not drawn) [MMV023388]
P. falciparum ABS; [10]
  EC50: 900 nM
P. falciparum ABS; [3]
  IC50: 710 nM
Liver stage; [4]
  IC50: 6540 nM
HepG2; [5]
  CC50: > 10 µM

## C[C@]1(O)C[C@@H](c2nc(-c3ccc4ccc(-c5ccccc5)nc4c3)c3c(N)nccn32)C1 [MMV676605]
P. falciparum ABS; [7]
  IC50: > 2000 nM
Liver stage; [8]
  IC50: 360 nM
HepG2
  CC50: > 10 µM

## COc1cccc(-c2cc3c(Nc4cccnc4)nccc3[nH]2)c1 [MMV392832]
P. falciparum ABS; [7]
  IC50: 1280 nM
Liver stage; [8]
  IC50: > 10000 nM
HepG2; [9]
  CC50: > 10 µM

## O=C(Nc1cccc(Cl)c1)c1cnc(N2CCN(c3ccncc3)CC2)c(Cl)c1 [MMV024406]
P. falciparum ABS; [10]
  EC50: 960 nM
P. falciparum ABS; [3]
  IC50: 830 nM
Liver stage; [4]
  IC50: 2350 nM
HepG2; [5]
  CC50: > 10 µM

## COc1ccc(CN2CCOc3ccc(C(C)(O)CN(C)C)cc3C2)cc1C (stereo not drawn) [MMV008439]
P. falciparum ABS; [2]
  EC50: 820 nM
P. falciparum ABS; [3]
  IC50: > 2000 nM
Liver stage; [4]
  IC50: 930 nM
HepG2; [5]
  CC50: > 10 µM

## O=C(NC1CC1)c1ccc(N2CCC(Cc3ccccc3)CC2)nc1 [MMV024397]
P. falciparum ABS; [10]
  EC50: 760 nM
P. falciparum ABS; [3]
  IC50: 1330 nM
Liver stage; [4]
  IC50: 1410 nM
HepG2; [5]
  CC50: > 10 µM

## Cc1cc(C)n2nc(C(=O)Nc3cc(C(F)(F)F)ccc3N3CCOCC3)nc2n1 [MMV019087]
P. falciparum ABS; [10]
  EC50: 120 nM
P. falciparum ABS; [3]
  IC50: 220 nM
Liver stage; [4]
  IC50: 1210 nM
HepG2; [5]
  CC50: > 10 µM

## Cc1ccc(Oc2ccc(NC(=O)CNc3ccccc3N3CCCC3=O)cc2)cc1 [MMV020512]
P. falciparum ABS; [10]
  EC50: 370 nM
P. falciparum ABS; [3]
  IC50: 480 nM
Liver stage; [4]
  IC50: 9100 nM
HepG2; [5]
  CC50: 9.8 µM

## CCOc1ccccc1NC(C)C(=O)Nc1cc(C(F)(F)F)ccc1N1CCOCC1 (stereo not drawn) [MMV407834]
P. falciparum ABS; [7]
  IC50: 420 nM
Liver stage; [8]
  IC50: > 10000 nM
HepG2; [9]
  CC50: > 10 µM

## FC(F)(F)c1cccc(-c2nc3c(NCc4ccncc4)nccc3[nH]2)c1 [MMV032967]
P. falciparum ABS; [7]
  IC50: 510 nM
Liver stage; [8]
  IC50: > 10000 nM
HepG2; [9]
  CC50: > 10 µM

## OCCc1ccc(Nc2nccc(-c3nnc4ccccn34)n2)cc1 [MMV028694]
[1]
  IC50: 2390 nM
P. falciparum ABS; [6]
  EC50: 900 nM
P. falciparum ABS; [7]
  IC50: 1080 nM
Liver stage; [8]
  IC50: 1470 nM
HepG2; [9]
  CC50: 8.1 µM
HEK293 cells
  IC50: > 20000 nM

## CN(C)CCNC(=O)N1CCCN(c2ncnc3cc(-c4ccccc4)sc23)CC1 [MMV024195]
P. falciparum ABS; [10]
  EC50: 790 nM
P. falciparum ABS; [3]
  IC50: 1580 nM
Liver stage; [4]
  IC50: 1970 nM
HepG2; [5]
  CC50: > 10 µM

## O=C(NC1CC1)c1ccc(N2CCOc3ccc(Cl)cc32)s1 [MMV020537]
P. falciparum ABS; [10]
  EC50: 800 nM
P. falciparum ABS; [3]
  IC50: 1030 nM
Liver stage; [4]
  IC50: 3480 nM
HepG2; [5]
  CC50: > 10 µM

## Cc1ccc(NC(=O)c2cc(S(=O)(=O)NC(C)(C)C)ccc2C)nc1 [MMV020289]
P. falciparum ABS; [10]
  EC50: 760 nM
P. falciparum ABS; [3]
  IC50: 930 nM
Liver stage; [4]
  IC50: 7350 nM
HepG2; [5]
  CC50: > 7.5 µM

## NS(=O)(=O)c1cncc(-c2ccc3nccc(-c4cn[nH]c4)c3n2)c1 [MMV024101]
P. falciparum ABS; [10]
  EC50: 530 nM
P. falciparum ABS; [3]
  IC50: 600 nM
Liver stage; [4]
  IC50: 2170 nM

## Clc1cccc(C(c2ccc(CN3CCNCC3)cc2)n2ccnc2)c1 (stereo not drawn) [MMV663250]
P. falciparum ABS; [7]
  IC50: 1630 nM
Liver stage; [8]
  IC50: > 10000 nM
HepG2; [9]
  CC50: > 10 µM
HEK293 cells
  IC50: > 20000 nM

## Nc1ccc(C(=O)Nc2ccc(-c3nc4ccccc4o3)cc2)cc1 [MMV007920]
P. falciparum ABS; [2]
  EC50: 940 nM
P. falciparum ABS; [3]
  IC50: 1550 nM
Liver stage; [4]
  IC50: > 10000 nM
HepG2; [5]
  CC50: > 10 µM

## C[C@H](C(N)=O)N1CCCC[C@H]1c1ccc(OCc2cccc(F)c2)cc1 [MMV676269]
P. falciparum ABS; [6]
  EC50: 990 nM
P. falciparum ABS; [7]
  IC50: > 2000 nM
Liver stage; [8]
  IC50: 1360 nM
HepG2; [9]
  CC50: > 10 µM

## Cc1cc(C(=O)Nc2ccc(-c3ccccc3)cc2)no1 [MMV020152]
P. falciparum ABS; [10]
  EC50: 690 nM
P. falciparum ABS; [3]
  IC50: 820 nM
Liver stage; [4]
  IC50: > 10000 nM
HepG2; [5]
  CC50: > 10 µM

## CC1CC1C(=O)NC1CCN(CC2(c3ccccc3)CCCCC2)CC1 (stereo not drawn) [MMV020120]
P. falciparum ABS; [10]
  EC50: 640 nM
P. falciparum ABS; [3]
  IC50: 580 nM
Liver stage; [4]
  IC50: 2250 nM
HepG2; [5]
  CC50: > 10 µM

## O=C(Nc1ccc(N2CCNCC2)nc1)c1oc(-c2ccccc2)nc1C(F)(F)F [MMV024937]
P. falciparum ABS; [10]
  EC50: 980 nM
P. falciparum ABS; [3]
  IC50: 1220 nM
Liver stage; [4]
  IC50: 2550 nM
HepG2; [5]
  CC50: > 10 µM

## Cc1cccc(NC(=O)c2cc(S(=O)(=O)N(C)c3ccc(F)cc3)ccc2Cl)n1 [MMV676528]
P. falciparum ABS; [7]
  IC50: 1580 nM
Liver stage; [8]
  IC50: 6770 nM
HepG2; [9]
  CC50: > 10 µM

## Cc1ccc(S(=O)(=O)N2CCN(C(=O)c3cc(-c4ccccc4)n[nH]3)CC2)cc1 [MMV019742]
P. falciparum ABS; [10]
  EC50: 600 nM
P. falciparum ABS; [3]
  IC50: 1040 nM
Liver stage; [4]
  IC50: 630 nM
HepG2; [5]
  CC50: > 10 µM

## Cc1nnc(NC(=O)c2cn(-c3ccccc3)nc2-c2ccccc2C)o1 [MMV020320]
P. falciparum ABS; [10]
  EC50: 570 nM
P. falciparum ABS; [3]
  IC50: 710 nM
Liver stage; [4]
  IC50: 170 nM
HepG2; [5]
  CC50: > 10 µM

## CCOc1ccc(-c2nc(NC(=O)CS(=O)(=O)c3ccccc3)sc2C)cc1 [MMV007638]
P. falciparum ABS; [2]
  EC50: 530 nM
P. falciparum ABS; [10]
  EC50: 510 nM
P. falciparum ABS; [3]
  IC50: 660 nM
Liver stage; [4]
  IC50: > 10000 nM
HepG2; [5]
  CC50: > 10 µM

## Cc1nc(-c2cccc(NCc3ccccc3)c2)[nH]c1C [MMV023227]
P. falciparum ABS; [10]
  EC50: 860 nM
P. falciparum ABS; [3]
  IC50: 1940 nM
Liver stage; [4]
  IC50: 4590 nM
HepG2; [5]
  CC50: > 10 µM

## Cc1ccc(S(=O)(=O)n2cc(-c3ccnc(N)c3)c3cc(Br)cnc32)cc1 [MMV024114]
P. falciparum ABS; [10]
  EC50: 900 nM
P. falciparum ABS; [3]
  IC50: 630 nM
Liver stage; [4]
  IC50: > 6000 nM
HepG2; [5]
  CC50: > 6 µM
HEK293 cells; HEK293, read-out: HEK % Inhibition 20uM/IC50 Discovery Biology
  inhibition at 20 µM: 60%
